Values joined by “and” are separate entries in the source; they are usually repeats but may differ in a detail not shown here. Equal entries are not always repeated. Numbers after ± are expanded uncertainties.
Legend:
[1] = refractive index (Na D-line) (dimensionless); settings: 101.33 kPa, Liquid, Standard Abbe refractometry
[2] = 100 kPa, Liquid; for viscosity: Capillary tube (Ostwald / Ubbelohde) method; for mass density: Vibrating tube method
[3] = xn = mol fraction of the nth substance listed; settings: 100 kPa, Liquid, x2 = 0; for viscosity: Capillary tube (Ostwald / Ubbelohde) method; for mass density: Vibrating tube method
[4] = refractive index (Na D-line) (dimensionless); xn = mol fraction of the nth substance listed; settings: Liquid, Standard Abbe refractometry, x2 = 0

C1CC[C@H]2CCCC[C@H]2C1 [cis-decahydronaphthalene]
Settings	mass density, [2] [kg/m3]	refractive index, [1]	viscosity, [2]
293.15 K	896.85 ± 0.48	–	3.355 ± 0.033 mPa·s
298.15 K	893.06 ± 0.48	1.4776 ± 0.0013	3.011 ± 0.03 mPa·s
303.15 K	889.26 ± 0.48	–	2.718 ± 0.028 mPa·s
308.15 K	885.46 ± 0.48	1.4736 ± 0.0013	2.47 ± 0.026 mPa·s
313.15 K	881.65 ± 0.48	–	2.252 ± 0.024 mPa·s
318.15 K	877.85 ± 0.47	1.4696 ± 0.0013	2.079 ± 0.022 mPa·s and 2.063 ± 0.022 mPa·s
323.15 K	874.05 ± 0.47	–	1.912 ± 0.021 mPa·s and 1.898 ± 0.021 mPa·s

CCCCCCCCCC [decane]
Settings	mass density, [2] [kg/m3]	refractive index, [1]	viscosity, [2] [mPa·s]
293.15 K	731.14 ± 0.23	–	0.916 ± 0.012
298.15 K	727.43 ± 0.23	1.4098 ± 0.0012	0.852 ± 0.012
303.15 K	723.64 ± 0.23	–	0.799 ± 0.012
308.15 K	719.84 ± 0.23	1.4052 ± 0.0012	0.751 ± 0.011
313.15 K	716.03 ± 0.23	–	0.709 ± 0.011
318.15 K	712.2 ± 0.23	1.4 ± 0.0012	0.667 ± 0.011
323.15 K	708.36 ± 0.23	–	0.632 ± 0.011

CCCCCCCCCC [decane] + C1CC[C@H]2CCCC[C@@H]2C1
[3]
Settings	mass density [kg/m3]	viscosity [mPa·s]
293.15 K	731.14 ± 0.23	0.916 ± 0.012
298.15 K	727.43 ± 0.23	0.852 ± 0.012
303.15 K	723.64 ± 0.23	0.799 ± 0.012
308.15 K	719.84 ± 0.23	0.751 ± 0.011
313.15 K	716.03 ± 0.23	0.709 ± 0.011
318.15 K	712.2 ± 0.23	0.667 ± 0.011
323.15 K	708.36 ± 0.23	0.632 ± 0.011

[4], 101 kPa
Settings	refractive index
298.15 K	1.4098 ± 0.0007
308.15 K	1.4052 ± 0.0007
318.15 K	1.4 ± 0.0007

CCCCCCCCCC [decane] + C1CC[C@H]2CCCC[C@H]2C1
[3]
Settings	mass density [kg/m3]	viscosity [mPa·s]
293.15 K	731.14 ± 0.23	0.916 ± 0.012
298.15 K	727.43 ± 0.23	0.852 ± 0.012
303.15 K	723.64 ± 0.23	0.799 ± 0.012
308.15 K	719.84 ± 0.23	0.751 ± 0.011
313.15 K	716.03 ± 0.23	0.709 ± 0.011
318.15 K	712.2 ± 0.23	0.667 ± 0.011
323.15 K	708.36 ± 0.23	0.632 ± 0.011

[4], 100 kPa
Settings	refractive index
298.15 K	1.4098 ± 0.0012
308.15 K	1.4052 ± 0.0012
318.15 K	1.4 ± 0.0012

CCCCCCCCC [nonane]
Settings	mass density, [2] [kg/m3]	refractive index, [1]	viscosity, [2] [mPa·s]
293.15 K	717.94 ± 0.24	–	0.724 ± 0.011
298.15 K	714.11 ± 0.24	1.4026 ± 0.0013	0.681 ± 0.011
303.15 K	710.2 ± 0.24	–	0.64 ± 0.011
308.15 K	706.29 ± 0.25	1.3983 ± 0.0013	0.604 ± 0.011
313.15 K	702.35 ± 0.25	–	0.571 ± 0.011
318.15 K	698.4 ± 0.25	1.3937 ± 0.0013	0.547 ± 0.011
323.15 K	694.43 ± 0.25	–	0.521 ± 0.011
